{"source": "ChEMBL document CHEMBL1201862", "about": "“PubChem BioAssay data set” (2004)", "key": {"[1]": {"assay": "growth suppression of PTEN-null colon cells, dose response, cell-based, HCT116 PTEN knockout (AID 1047);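 also: HCT116 colon tumor cells with PTEN knocked out; cells exposed to compound for 60 hours before readout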", "type": "functional"}, "[2]": {"assay": "growth suppression of beta-catenin-knockout colon cells, dose response, cell-based, HCT116, human colon tumor (AID 1045);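 also: HCT116 colon tumor cells with beta catenin knocked out; cells exposed to compound for 60 hours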", "type": "functional"}, "[3]": {"molecular_target": "Cytochrome P450 2D6 (Homo sapiens, UniProt P10635)", "sequence (P10635 whole entry)": "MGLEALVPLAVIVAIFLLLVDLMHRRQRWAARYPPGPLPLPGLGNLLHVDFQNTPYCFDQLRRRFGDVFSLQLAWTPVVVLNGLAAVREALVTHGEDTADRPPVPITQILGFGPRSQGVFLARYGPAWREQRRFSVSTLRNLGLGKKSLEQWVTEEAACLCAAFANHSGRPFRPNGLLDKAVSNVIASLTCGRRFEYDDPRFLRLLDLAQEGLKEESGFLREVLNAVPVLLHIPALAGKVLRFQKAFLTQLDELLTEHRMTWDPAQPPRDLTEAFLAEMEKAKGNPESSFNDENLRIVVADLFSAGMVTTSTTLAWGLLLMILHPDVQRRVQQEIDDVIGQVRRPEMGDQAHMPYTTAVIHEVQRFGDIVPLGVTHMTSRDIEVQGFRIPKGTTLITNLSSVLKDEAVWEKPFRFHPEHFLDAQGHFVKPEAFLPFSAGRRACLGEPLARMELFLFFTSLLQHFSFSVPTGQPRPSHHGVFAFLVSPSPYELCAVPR"}, "[4]": {"molecular_target": "T1, Cytochrome P450 1A2 (Homo sapiens, UniProt P05177)", "T1 sequence (P05177 whole entry)": "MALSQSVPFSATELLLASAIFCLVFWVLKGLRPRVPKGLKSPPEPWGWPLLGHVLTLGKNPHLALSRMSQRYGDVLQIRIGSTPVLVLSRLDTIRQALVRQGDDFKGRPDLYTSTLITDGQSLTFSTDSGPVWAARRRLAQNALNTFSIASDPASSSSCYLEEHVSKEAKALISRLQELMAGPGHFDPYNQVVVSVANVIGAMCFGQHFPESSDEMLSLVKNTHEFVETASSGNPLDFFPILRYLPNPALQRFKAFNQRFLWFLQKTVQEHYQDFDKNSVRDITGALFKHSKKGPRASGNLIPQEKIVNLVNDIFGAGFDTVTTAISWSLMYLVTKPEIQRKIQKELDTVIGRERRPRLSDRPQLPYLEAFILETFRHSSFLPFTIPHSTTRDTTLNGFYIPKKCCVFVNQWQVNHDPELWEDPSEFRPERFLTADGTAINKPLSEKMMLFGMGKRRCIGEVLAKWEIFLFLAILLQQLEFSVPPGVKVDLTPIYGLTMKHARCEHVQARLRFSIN"}, "[5]": {"system": "P388/ADR", "assay": "cells", "type": "functional", "conditions": "Mus musculus"}, "[6]": {"system": "SN12K1", "assay": "cells", "type": "functional", "conditions": "Homo sapiens"}, "[7]": {"system": "P388", "assay": "cells", "type": "functional", "conditions": "Mus musculus"}, "[8]": {"molecular_target": "T2, High affinity choline transporter 1 (Homo sapiens, UniProt Q9GZV3)", "T2 sequence (Q9GZV3 whole entry)": "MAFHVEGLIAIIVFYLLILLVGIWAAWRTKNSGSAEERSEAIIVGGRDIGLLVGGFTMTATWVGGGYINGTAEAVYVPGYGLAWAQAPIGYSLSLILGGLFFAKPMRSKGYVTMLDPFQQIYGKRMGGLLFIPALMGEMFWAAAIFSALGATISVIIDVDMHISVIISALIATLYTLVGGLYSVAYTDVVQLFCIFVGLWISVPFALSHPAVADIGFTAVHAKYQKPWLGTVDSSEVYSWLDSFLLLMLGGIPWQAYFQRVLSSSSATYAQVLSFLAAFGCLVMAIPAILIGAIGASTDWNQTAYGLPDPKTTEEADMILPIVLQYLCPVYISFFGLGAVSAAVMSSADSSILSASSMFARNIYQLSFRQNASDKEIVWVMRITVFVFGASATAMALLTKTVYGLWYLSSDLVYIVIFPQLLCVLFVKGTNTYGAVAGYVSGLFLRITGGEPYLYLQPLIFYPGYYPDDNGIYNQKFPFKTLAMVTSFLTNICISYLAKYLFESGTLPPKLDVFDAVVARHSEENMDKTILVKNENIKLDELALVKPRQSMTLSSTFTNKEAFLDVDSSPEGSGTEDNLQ", "assay": "CHT inhibitors, dose response, cell-based, 5-point CRC, membrane potential dye (AID 504840)", "type": "functional"}, "[9]": {"system": "Streptococcus sp. 'group A'", "assay": "growth inhibition of control SK(-) GAS strain, dose response, counter-screen for streptokinase expression inhibitor project, luminescence, kanamycin, BacTiterGlo, confirmation (AID 1900)", "type": "functional, organism-based"}, "[10]": {"assay": "inhibitors of intracellular T. cruzi replication, confirmation, NIH3T3 host cells, beta-gal luminescence (AID 2044);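 also: luminescent beta-galactosidase reporter signal from transgenic T. cruzi replicating inside host cells; inhibitors lower the luminescence signal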", "type": "functional, cell-based"}, "[11]": {"assay": "cytotoxicity toward NIH3T3 fibroblasts, dose response, counter-screen, cell-based, ATP luminescence, mouse fibroblasts (AID 2010);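 also: cells exposed to compound for about 90 hours before reading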", "type": "functional"}, "[12]": {"system": "Streptococcus", "assay": "Group A Streptococcus viability loss, dose response, counter-screen for streptokinase expression inhibitor project, luminescence, BacTiterGlo (AID 1915);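 also: potency for reduction of bacterial viability or growth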", "type": "functional, organism-based"}, "[13]": {"system": "INS1", "assay": "beta cell apoptosis inhibitors, cytokine rescue, dose response, luminescence, retest (AID 449756);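 also: cell death triggered by IL-1 beta plus TNF-alpha plus IFN-gamma mixture; protective hits raise ATP signal compared with cytokine alone wells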", "type": "functional, cell-based", "conditions": "Rattus norvegicus"}, "[14]": {"assay": "Shn3 3'UTR reporter inhibitors, dose response, cell-based, Clone20 osteoblasts, firefly luciferase, cherry-picked (AID 624132)", "type": "functional"}, "[15]": {"assay": "HepG2 cell cytotoxicity, dose response, cytotoxicity control for Shn3 inhibitor project, CellTiter-Glo, cherry-picked (AID 624134)", "type": "functional, cell-based"}, "[16]": {"assay": "control 3'UTR Renilla luciferase suppression, dose response, counter-screen for Shn3 inhibitor project, cell-based, Clone20-Shn3RL, cherry-picked (AID 624133)", "type": "functional"}, "[17]": {"assay": "microbe, parasite or virus in culture", "type": "functional", "conditions": "Mycobacterium tuberculosis"}, "[18]": {"molecular_target": "T3, Calpain-2 catalytic subunit (Sus scrofa, UniProt P43367)", "T3 sequence (P43367 whole entry)": "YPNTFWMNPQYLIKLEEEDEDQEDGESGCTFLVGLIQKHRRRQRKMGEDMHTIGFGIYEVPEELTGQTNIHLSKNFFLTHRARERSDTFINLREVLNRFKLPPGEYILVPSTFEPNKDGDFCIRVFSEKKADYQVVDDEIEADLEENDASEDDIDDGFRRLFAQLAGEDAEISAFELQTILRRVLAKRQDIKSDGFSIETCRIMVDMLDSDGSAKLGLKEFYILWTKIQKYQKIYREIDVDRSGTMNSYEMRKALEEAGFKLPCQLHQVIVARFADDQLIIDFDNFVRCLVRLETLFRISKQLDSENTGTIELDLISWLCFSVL", "assay": "pig calpain II inhibitor potency, dose response, biochemical, fluorogenic peptide substrate (AID 1420)", "type": "functional"}, "[19]": {"molecular_target": "FAD-linked sulfhydryl oxidase ALR (Homo sapiens, UniProt P55789)", "sequence (P55789 whole entry)": "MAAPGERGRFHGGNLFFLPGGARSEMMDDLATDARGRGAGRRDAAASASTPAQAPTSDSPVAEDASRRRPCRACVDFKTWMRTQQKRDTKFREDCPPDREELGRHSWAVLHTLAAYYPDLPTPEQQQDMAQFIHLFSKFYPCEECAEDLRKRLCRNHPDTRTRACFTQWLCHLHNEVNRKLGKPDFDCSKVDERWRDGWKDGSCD", "assay": "inhibitors of human ALR sulfhydryl oxidase, dose response, biochemical, H2O2 detection, luminescence, cherry-pick (AID 493248)"}}, "note": "Calls of active or inactive are those of the source."}
{"smiles": "CCOc1ccc(NCc2nnc(SCC(=O)Nc3nc(-c4ccccc4)cs3)n2-c2ccccc2)cc1", "values": [{"measurement": "EC50", "setting": "[1]", "value": "3.65 µM (active)"}, {"measurement": "EC50", "setting": "[2]", "value": "3.28 µM (active)"}]}
{"smiles": "COC(=O)c1ccc2c(c1)C(=O)/C(=C/c1ccc(C)cc1)O2", "values": [{"measurement": "EC50", "setting": "[1]", "value": "16.8 µM (active)"}, {"measurement": "EC50", "setting": "[2]", "value": "17.2 µM (active)"}]}
{"smiles": "CCOC(=O)c1ccc(NC(=NS(=O)(=O)c2ccccc2C)c2ccccc2)cc1", "values": [{"measurement": "EC50", "setting": "[1]", "value": "36.4 µM (active)"}, {"measurement": "EC50", "setting": "[2]", "value": "56.2 µM (active)"}, {"measurement": "AC50", "setting": "[3]", "value": "17.8 µM (inconclusive)"}, {"measurement": "AC50", "setting": "[4]", "value": "25.1 µM (inconclusive)"}]}
{"smiles": "COc1cc(/C=C/C(=O)O)ccc1C(=O)O/C=C/c1ccccc1", "values": [{"measurement": "GI50", "setting": "[5]", "value": "14.1 µM (inactive)"}, {"measurement": "GI50", "setting": "[6]", "value": "> 100 µM (inactive)"}, {"measurement": "GI50", "setting": "[7]", "value": "25.6 µM (inactive)"}]}
{"smiles": "C[C@H](CN1CC(=O)NC(=O)C1)N1CC(=O)NC(=O)C1", "values": [{"measurement": "GI50", "setting": "[5]", "value": "13.9 µM (inactive)"}, {"measurement": "GI50", "setting": "[6]", "value": "36.8 µM (inactive)"}, {"measurement": "GI50", "setting": "[7]", "value": "0.319 µM (active)"}]}
{"smiles": "O=C1C2=C(C3=NCCc4c[nH]c1c43)C1(C=C(Br)C(O)C(Br)=C1)CCN2", "note": "(configuration not stated)", "values": [{"measurement": "GI50", "setting": "[5]", "value": "1.81 µM (inactive)"}, {"measurement": "GI50", "setting": "[6]", "value": "2.99 µM (inactive)"}, {"measurement": "GI50", "setting": "[7]", "value": "1.25 µM (inactive)"}]}
{"smiles": "CNC(=O)SCC(NC(=O)CCC(N)C(=O)O)C(=O)NCC(=O)O", "note": "(configuration not stated)", "values": [{"measurement": "GI50", "setting": "[5]", "value": "26.4 µM (inactive)"}, {"measurement": "GI50", "setting": "[6]", "value": "> 59.2 µM (inactive)"}, {"measurement": "GI50", "setting": "[7]", "value": "27.5 µM (inactive)"}]}
{"smiles": "CN1CCCN(c2ncnc3scc(-c4ccc(F)cc4)c23)CC1", "values": [{"measurement": "IC50", "setting": "[8]", "value": "12.9 µM (active)"}]}
{"smiles": "CC1[C@@]2(CCC(C)(C)O2)O[C@@H]2C=C3C4CCC5Cc6nc7c(nc6C[C@@]5(C)C4C[C@H](O)[C@@]3(C)[C@]12O)CC1CCC2C3=C[C@H]4O[C@@]5(O[C@@](C)(CO)C[C@@H]5O)C(C)[C@@]4(O)[C@]3(C)[C@@H](O)CC2[C@]1(C)C7", "note": "(some centres not stated)", "values": [{"measurement": "GI50", "setting": "[5]", "value": "0.00112 µM (active)"}, {"measurement": "GI50", "setting": "[6]", "value": "0.000365 µM (active)"}, {"measurement": "GI50", "setting": "[7]", "value": "0.000365 µM (active)"}]}
{"smiles": "CC(=O)/C(=N\\Nc1ccc(Cl)cc1Cl)Sc1nnc(-c2ccccc2)n1-c1ccccc1", "values": [{"measurement": "EC50", "setting": "[1]", "value": "9.61 µM (active)"}, {"measurement": "EC50", "setting": "[2]", "value": "8.46 µM (active)"}]}
{"smiles": "COc1ccc(C(NC(C)=O)c2cc(Cl)c3cccnc3c2O)cc1OC", "note": "(configuration not stated)", "values": [{"measurement": "EC50", "setting": "[9]", "value": "3.99 µM (active)"}, {"measurement": "EC50", "setting": "[10]", "value": "941 nM (active)"}, {"measurement": "EC50", "setting": "[11]", "value": "1.01 µM (active)"}, {"measurement": "EC50", "setting": "[12]", "value": "3.67 µM (active)"}, {"measurement": "AC50", "setting": "[13]", "value": "2.3 µM (active)"}, {"measurement": "AC50", "setting": "[14]", "value": "3.45 µM (active)"}, {"measurement": "AC50", "setting": "[15]", "value": "3.12 µM (active)"}, {"measurement": "AC50", "setting": "[16]", "value": "2.98 µM (active)"}]}
{"smiles": "c1ccc(-c2nc3nonc3nc2-c2ccccc2)cc1", "values": [{"measurement": "CC50", "setting": "[17]", "value": "17.8 µM (active)"}, {"measurement": "AC50", "setting": "[13]", "value": "1.15 µM (active)"}]}
{"smiles": "Cc1c(C(=O)c2ccc(N(C)C)cc2)c2ccccn2c1CCC#N", "values": [{"measurement": "IC50", "setting": "[18]", "value": "> 50 µM (not active)"}, {"measurement": "AC50", "setting": "[19]", "value": "2.73 µM (active)"}]}
{"smiles": "CC(C)Sc1sc(C(=O)O)c(-c2ccc(Cl)cc2)c1C#N", "values": [{"measurement": "IC50", "setting": "[8]", "value": "13.5 µM (active)"}]}
{"smiles": "CCn1c(N2CCN(S(=O)(=O)c3ccc(Cl)cc3)CC2)nc2ccccc21", "values": [{"measurement": "EC50", "setting": "[10]", "value": "1550 nM (active)"}, {"measurement": "EC50", "setting": "[11]", "value": "> 60 µM (not active)"}, {"measurement": "AC50", "setting": "[14]", "value": "9.14 µM (active)"}, {"measurement": "AC50", "setting": "[15]", "value": "58.3 µM (active)"}, {"measurement": "AC50", "setting": "[16]", "value": "9.17 µM (active)"}]}
{"smiles": "OCC1CCC(n2cnc3c(O)ncnc32)O1", "note": "(configuration not stated)", "values": [{"measurement": "GI50", "setting": "[5]", "value": "> 100 µM (inactive)"}, {"measurement": "GI50", "setting": "[6]", "value": "> 100 µM (inactive)"}, {"measurement": "GI50", "setting": "[7]", "value": "> 100 µM (inactive)"}]}
